Laboratory results from article PMC6150735, “Molecular Docking-Based Design and Development of a Highly Selective Probe Substrate for UDP-glucuronosyltransferase 1A10” (Molecular Pharmaceutics, 2018).
Entries after “also recorded” stand apart in the source; their conditions may differ.

What was measured:
[1] = target: T1, UGT1A10 (Homo sapiens, UniProt Q9HAW8); test: Glucuronidation kinetics by recombinant wild-type UGT1A10 (fluorescence decrease, 96-well plate); type: biochemical
T1 construct: His-tag; made in house; host or cells: baculovirus-infected insect cells
T1 sequence (Q9HAW8 26-530): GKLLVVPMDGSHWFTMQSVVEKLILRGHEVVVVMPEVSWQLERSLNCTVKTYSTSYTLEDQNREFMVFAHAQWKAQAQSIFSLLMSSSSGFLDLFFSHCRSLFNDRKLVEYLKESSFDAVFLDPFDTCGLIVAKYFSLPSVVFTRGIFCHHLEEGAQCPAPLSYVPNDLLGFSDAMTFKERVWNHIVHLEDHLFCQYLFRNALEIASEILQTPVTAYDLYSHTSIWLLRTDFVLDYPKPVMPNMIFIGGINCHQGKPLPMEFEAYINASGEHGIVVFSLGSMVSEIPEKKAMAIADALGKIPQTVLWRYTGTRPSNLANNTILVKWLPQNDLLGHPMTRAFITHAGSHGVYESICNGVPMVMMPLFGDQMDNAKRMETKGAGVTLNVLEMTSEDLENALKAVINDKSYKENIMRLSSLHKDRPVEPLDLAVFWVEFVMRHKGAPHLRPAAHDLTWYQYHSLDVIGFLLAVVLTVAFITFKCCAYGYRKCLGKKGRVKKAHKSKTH
Description: Recombinant human UGTs 1A1, 1A3, 1A6, 1A7, 1A8, 1A9, 1A10, 2A1, 2A2, 2A3, 2B4, 2B10, 2B7, and 2B17 were produced, as His-tagged proteins, in baculovirus-infected insect cells as previously described.[37]−[39] The relative expression level of each of these recombinant UGTs was evaluated by immunodetection, using monoclonal antibody against the His-tag, as described elsewhere.[40] A numeric value of 1.0 was given to the expression level of UGT1A8 and the relative expression level of each of the other UGTs was related to this value. Normalized activities were obtained by dividing the glucuronidation rate values by the relative expression level of the tested UGT. […] The expression levels of the UGTs in the commercial samples could not be determined, so their protein concentration was used to calculate the reaction rate.
The incubation mixtures for glucuronidation assays contained 100 mM Tris-HCl buffer pH 7.4, 2.5 mM MgCl2, 0.5 mM UDPGA, recombinant UGT, or microsomes as the enzyme source and 0–15 μM of the test aglycone substrate. […] In subsequent experiments, the control samples lacked the enzyme source since it gave the highest fluorescence background. […] Fluorescence spectra (excitation 200–420 nm; emission 400–600 nm) or fluorescence decrease at 390 nm excitation and 460 nm emission, were measured in these preliminary experiments, using a Shimadzu RF-5000 spectrophotofluorometer. […]

[2] = system: human UGTs; test: Recombinant human UGT screen: glucuronidation rates across human UGTs; type: biochemical; settings: 10 μM aglycone; other UGTs at very low rates
Description: Recombinant human UGTs 1A1, 1A3, 1A6, 1A7, 1A8, 1A9, 1A10, 2A1, 2A2, 2A3, 2B4, 2B10, 2B7, and 2B17 were produced, as His-tagged proteins, in baculovirus-infected insect cells as previously described.[37]−[39] The relative expression level of each of these recombinant UGTs was evaluated by immunodetection, using monoclonal antibody against the His-tag, as described elsewhere.[40] A numeric value of 1.0 was given to the expression level of UGT1A8 and the relative expression level of each of the other UGTs was related to this value. Normalized activities were obtained by dividing the glucuronidation rate values by the relative expression level of the tested UGT. In addition, UGTs 1A4, 2B10, and 2B15 were purchased from Corning Life Sciences (New York) and are marked, in Figure 5, with a “C” to indicate that they are commercial enzymes. The expression levels of the UGTs in the commercial samples could not be determined, so their protein concentration was used to calculate the reaction rate.
(§1) The incubation mixtures for glucuronidation assays contained 100 mM Tris-HCl buffer pH 7.4, 2.5 mM MgCl2, 0.5 mM UDPGA, recombinant UGT, or microsomes as the enzyme source and 0–15 μM of the test aglycone substrate. When the incubation mixtures contained microsomes, alamethicin was used at a final concentration of 12.5 μg/mL, but it was not included in the recombinant enzyme assays.[43] In the first experiments three negative control samples were tested, namely (i) without the substrate 7-hydroxycoumarin derivative, (ii) without the cofactor UDPGA, or (iii) without the enzyme source. In subsequent experiments, the control samples lacked the enzyme source since it gave the highest fluorescence background. Preliminary experiments were done under different conditions than most of the later assays, namely in 2.5 mL of 100 mM phosphate buffer pH 7.4, containing 500 μg pig liver microsomes, 1.0 μM compound 6 and 0.5 mM UDPGA, at room temperature. Fluorescence spectra (excitation 200–420 nm; emission 400–600 nm) or fluorescence decrease at 390 nm excitation and 460 nm emission, were measured in these preliminary experiments, using a Shimadzu RF-5000 spectrophotofluorometer.
(§2) Most of the glucuronidation assays were carried out in 96 multiwell plate format, and incubations were carried out in 100 μL and at 37 °C, in the presence of Tris–HCl buffer pH 7.4, UDPGA, and the tested 7-hydroxycoumarin derivative, at the indicated concentrations. Fluorescence decline in the multiwell plate experiments was monitored every other minute, for 40 min, using an excitation filter at 405 nm and detection at 460 nm, in a Victor2 1420 Multilabel counter (PerkinElmer, Life Sciences, Turku, Finland). The fluorescence values were transformed into molarity using the aglycone substrates for making the respective standard curves. Slopes of the substrate concentration decrease per minute were calculated using linear regression analysis, in which the linear part of the kinetic assay indicated the glucuronidation rate. Enzyme catalyzed glucuronidation rate was calculated by subtracting the blank value from the full reaction value. The intra-assay variability of the kinetic assays was 6% when compound 6 was used as the aglycone substrate. Kinetic analyses were also performed in the same 96 multiwell plates format, with excitation filter at 405 nm and detection at 460 nm, using 6–8 different substrate concentrations per substrate and two different protein concentrations for both the wild-type and mutant UGT1A10. The higher concentrations, 13.5 mg/L for UGT1A10 and 12.0 mg/L for the UGT1A10 mutant, were used when the substrates were HFC, compounds 4 and 6, whereas the lower protein concentrations, 6.75 and 6.0 mg/L for UGT1A10 and the mutant, respectively, were used when the substrates were compounds 1, 2, 3, and 5.

[3] = Glucuronidation by human liver microsomes (HLM); type: in vitro ADME; settings: pooled human liver microsomes (HLM), pH 7.4; human hepatic microsomes
Description: (§3) A commercial HLM pool (cat no:452210, BD Gentest, Bedford, MA) and human intestine microsomes (HIM) pool (lot. no 1110189, XenoTech, Kansas City, KS) were purchased. Pig liver samples were prepared from untreated female pigs that were used for practicing surgical procedures at the University of Kuopio (currently: University of Eastern Finland, Kuopio campus). Other animal liver microsomes were prepared as described previously.[41] The Ethics Committee for Animal Experiments, University of Kuopio, approved these experiments.
as §1, §2

[4] = system: human liver microsomes (HLM); test: Glucuronidation by human liver microsomes (HLM); type: in vitro ADME
Description: as §3, §1, §2

[5] = Glucuronidation by human intestinal microsomes (HIM); type: in vitro ADME; settings: human, pooled human intestinal microsomes (HIM), pH 7.4
Description: as §3, §1, §2

[6] = system: human intestinal microsomes (HIM); test: as above; type: in vitro ADME
Description: as §3, §1, §2

[7] = Absorbance spectra of coumarin derivatives; type: physicochemical; settings: 10 μM, 100 mM Tris–HCl pH 7.4, 10% dimethyl sulfoxide
Description: The absorbance spectra of 10 μM coumarin derivatives at 100 mM Tris–HCl pH 7.4 containing 10% dimethyl sulfoxide were measured using a Hitachi U-2000 Spectrophotometer (Tokyo, Japan). Excitation and emission fluorescence spectra of 0.1 μM coumarin derivatives in 100 mM Tris-HCl pH 7.4 were measured using a Shimadzu RF-5000 spectrophotofluorometer (Tokyo, Japan). The excitation spectra was from 200 to 420 at 460 nm emission and the emission spectra was from 400 to 600 at 390 nm excitation (data in Supplementary Table S1 and Figures S1 and S2). The effect of pH on fluorescence intensity was determined at 405 nm excitation and 460 nm emission, in the presence of 1.5% trichloroacetic acid, 100 mM phosphate buffers at pH 5, 6, 7, 8, and 9, or 1.6 M glycine–NaOH pH 10.4.

Intrinsic glucuronidation clearance (Vmax/Km) by UGT1A10 relative to compounds 1–5 [1]: less than 30% | Km [3]: 82 µM | Km [5]: 12 µM | Effect of adding albumin on Km and Vmax ([6]; intestinal microsomes, albumin in incubation mixture): increased both Km and Vmax values | Amax [7]: 392 nm | ε abs [7]: 20 500 cmx1*Mx1
Compound: O=c1oc2cc(O)ccc2cc1-n1cncn1 [Compound 6, 7-Hydroxy-3-(1H-1,2,4-triazol-1-yl)-2H-chromen-2-one]
Selectivity among human UGTs [2]: selective for UGT1A10 | Glucuronidation by HLM (in words) ([4]; 10 μM aglycone): not glucuronidated by HLM at all, or only at very low rates; also recorded: very low or below the detection limit | Vmax ([4]; human hepatic microsomes): 4.0 (2.6–5.4) μmol/(min* g prot) | Vmax ([6]; human intestinal microsomes): 3.5 (2.9–4.0) μmol/(min * g prot)
